Measurements from ChEMBL document CHEMBL3132858, “6-Alkyl-, 6-aryl- or 6-hetaryl-7-deazapurine ribonucleosides as inhibitors of human or MTB adenosine kinase and potential antimycobacterial agents” (Medchemcomm, 2013).
The source made the active and inactive calls. No cut-off for these calls is given here.

What was measured:
Adenosine kinase [1] = target: T1, Adenosine kinase (Homo sapiens, UniProt P55263); assay: Inhibition of human ADK using [3H]-adenosine by scintillation counting method
Target sequence in this assay (P55263 whole entry): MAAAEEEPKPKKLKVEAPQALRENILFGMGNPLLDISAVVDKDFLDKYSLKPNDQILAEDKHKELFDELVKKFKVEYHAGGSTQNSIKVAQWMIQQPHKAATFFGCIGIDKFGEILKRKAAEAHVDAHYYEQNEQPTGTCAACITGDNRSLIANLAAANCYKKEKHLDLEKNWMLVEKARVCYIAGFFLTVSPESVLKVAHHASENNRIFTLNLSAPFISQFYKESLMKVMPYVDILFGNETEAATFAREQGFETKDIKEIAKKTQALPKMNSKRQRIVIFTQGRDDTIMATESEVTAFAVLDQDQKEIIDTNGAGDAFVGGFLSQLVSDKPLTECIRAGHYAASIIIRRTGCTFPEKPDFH

[2] = Cytotoxicity against human BJ cells after 72 hrs by MTT assay; type: cell-based
Adenosine kinase [3] = target: Adenosine kinase (Mycobacterium tuberculosis (strain CDC 1551 / Oshkosh), UniProt P9WID4); assay: Inhibition of Mycobacterium tuberculosis ADK using [3H]-adenosine by scintillation counting method
[4] = target: Adenosine kinase (Mycobacterium tuberculosis (strain CDC 1551 / Oshkosh)) (UniProt P9WID4); assay: Activity of Mycobacterium tuberculosis ADK assessed as compound conversion to 5'-phosphate form incubated at 37 degC for 20 mins by HPLC method
[5] = Cytotoxicity against human MRC5 cells after 72 hrs by MTT assay; type: cell-based
Adenosine kinase [6] = target: T1, Adenosine kinase; assay: Activity of human ADK assessed as compound conversion to 5'-phosphate form incubated at 37 degC for 20 mins by HPLC method; parameters: concentration or dose not given beside the values
Target sequence in this assay (P55263 2-362 limits assumed): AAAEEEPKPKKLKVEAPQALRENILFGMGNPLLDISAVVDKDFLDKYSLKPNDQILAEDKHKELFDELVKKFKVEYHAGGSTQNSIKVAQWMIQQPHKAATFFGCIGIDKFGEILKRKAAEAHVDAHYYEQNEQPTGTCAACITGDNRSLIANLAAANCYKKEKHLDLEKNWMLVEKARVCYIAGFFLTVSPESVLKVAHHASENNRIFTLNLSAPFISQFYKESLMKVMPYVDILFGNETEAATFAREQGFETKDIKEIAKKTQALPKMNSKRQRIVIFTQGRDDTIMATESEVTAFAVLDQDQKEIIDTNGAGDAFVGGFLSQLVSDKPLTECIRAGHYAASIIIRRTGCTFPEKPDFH

Adenosine kinase (Mycobacterium tuberculosis (strain CDC 1551 / Oshkosh), UniProt P9WID4), sequence (P9WID4 whole entry): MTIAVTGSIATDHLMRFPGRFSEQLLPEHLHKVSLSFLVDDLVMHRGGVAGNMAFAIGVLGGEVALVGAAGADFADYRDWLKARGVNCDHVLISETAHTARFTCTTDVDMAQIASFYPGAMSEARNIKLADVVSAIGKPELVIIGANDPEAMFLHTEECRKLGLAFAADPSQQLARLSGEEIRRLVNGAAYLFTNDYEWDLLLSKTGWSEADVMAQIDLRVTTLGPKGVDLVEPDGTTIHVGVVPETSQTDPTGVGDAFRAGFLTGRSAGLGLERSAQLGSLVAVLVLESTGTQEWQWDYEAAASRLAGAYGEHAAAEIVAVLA
Adenosine kinase (Mycobacterium tuberculosis (strain CDC 1551 / Oshkosh)), sequence (P9WID4 2-324 limits assumed): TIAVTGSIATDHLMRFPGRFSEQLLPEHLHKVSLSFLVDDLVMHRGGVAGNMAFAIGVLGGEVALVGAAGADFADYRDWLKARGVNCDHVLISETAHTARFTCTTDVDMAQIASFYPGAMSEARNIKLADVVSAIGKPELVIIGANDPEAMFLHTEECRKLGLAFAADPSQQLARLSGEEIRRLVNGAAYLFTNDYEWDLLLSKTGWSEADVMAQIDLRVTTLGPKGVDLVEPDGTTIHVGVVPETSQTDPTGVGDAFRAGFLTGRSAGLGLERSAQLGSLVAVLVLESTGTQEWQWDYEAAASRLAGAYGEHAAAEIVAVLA

Structure (SMILES) | IC50 (Adenosine kinase [1]) | CC50 at 72 h [2] | IC50 (Adenosine kinase [3]) | Activity [4] | CC50 at 72 h [5] | Activity (Adenosine kinase [6])
CCCCCCCCCCCCCCCCCCOP(=O)(O)OC[C@H]1O[C@@H](n2ccc3c(-c4ccccc4)ncnc32)[C@H](O)[C@@H]1O | 4.4 µM | > 50 µM | > 20 µM | inactive | > 50 µM | –
OC[C@H]1O[C@@H](n2cc(Cl)c3c(-c4cccs4)ncnc32)[C@H](O)[C@@H]1O | 1.2 µM | 4.97 µM | 0.07 µM | inactive | > 50 µM | 100%
OC[C@H]1O[C@@H](n2cc(Cl)c3c(-c4ccc(F)cc4)ncnc32)[C@H](O)[C@@H]1O | > 20 µM | 49.5 µM | 0.4 µM | inactive | > 50 µM | –
OC[C@H]1O[C@@H](n2cc(Cl)c3c(-c4ccoc4)ncnc32)[C@H](O)[C@@H]1O | 3.4 µM | 21.6 µM | 0.3 µM | inactive | > 50 µM | 100%
CCCCCCCCCCCCCCCCCCOP(=O)(O)OC[C@H]1O[C@@H](n2ccc3c(-c4cc5ccccc5o4)ncnc32)[C@H](O)[C@@H]1O | 2.9 µM | > 50 µM | > 20 µM | inactive | > 50 µM | –
OC[C@H]1O[C@@H](n2ccc3c(-c4ccoc4)ncnc32)[C@H](O)[C@@H]1O | > 10 µM | 1.2 µM | 0.32 µM | inactive | 45.4 µM | 32%
OC[C@H]1O[C@@H](n2ccc3c(-c4cn[nH]c4)ncnc32)[C@H](O)[C@@H]1O | > 20 µM | 42.1 µM | 0.67 µM | inactive | > 50 µM | 7%
OC[C@H]1O[C@@H](n2ccc3c(-c4ccccc4)ncnc32)[C@H](O)[C@@H]1O | > 10 µM | 44.1 µM | 0.12 µM | inactive | > 50 µM | –
OC[C@H]1O[C@@H](n2cc(F)c3c(-c4ccco4)ncnc32)[C@H](O)[C@@H]1O | 1.3 µM | 0.31 µM | 0.19 µM | inactive | 29 µM | 50%
OC[C@H]1O[C@@H](n2ccc3c(-c4nccs4)ncnc32)[C@H](O)[C@@H]1O | > 20 µM | 0.26 µM | 0.023 µM | inactive | 37 µM | 41%
OC[C@H]1O[C@@H](n2cc(Cl)c3c(-c4ccsc4)ncnc32)[C@H](O)[C@@H]1O | > 10 µM | 1.72 µM | 0.25 µM | inactive | > 50 µM | 97%
OC[C@H]1O[C@@H](n2cc(Cl)c3c(-c4ccco4)ncnc32)[C@H](O)[C@@H]1O | 0.29 µM | 37.2 µM | 0.11 µM | inactive | > 50 µM | 77%
COc1ccc(-c2ncnc3c2ccn3[C@@H]2O[C@H](CO)[C@@H](O)[C@H]2O)cc1 | > 10 µM | > 50 µM | 0.058 µM | inactive | > 50 µM | –
OC[C@H]1O[C@@H](n2ccc3c(-c4cccc5c4Oc4ccccc4S5)ncnc32)[C@H](O)[C@@H]1O | 3.07 µM | > 50 µM | 1.46 µM | inactive | > 50 µM | –
OC[C@H]1O[C@@H](n2cc(F)c3c(-c4ccoc4)ncnc32)[C@H](O)[C@@H]1O | > 10 µM | 0.35 µM | 0.15 µM | inactive | 15.4 µM | –
CCCCCCCCCCCCCCCCCCOP(=O)(O)OC[C@H]1O[C@@H](n2ccc3c(-c4ccoc4)ncnc32)[C@H](O)[C@@H]1O | 5.15 µM | 44.2 µM | > 20 µM | inactive | > 50 µM | –
OC[C@H]1O[C@@H](n2ccc3c(-c4cccc5c4oc4ccccc45)ncnc32)[C@H](O)[C@@H]1O | 5.26 µM | > 50 µM | 2.35 µM | inactive | > 50 µM | –
OC[C@H]1O[C@@H](n2ccc3c(-c4cccs4)ncnc32)[C@H](O)[C@@H]1O | > 5 µM | 0.31 µM | 0.046 µM | inactive | > 50 µM | –
CCCCCCCCCCCCCCCCCCOP(=O)(O)OC[C@H]1O[C@@H](n2ccc3c(-c4ccsc4)ncnc32)[C@H](O)[C@@H]1O | 6.35 µM | > 50 µM | > 20 µM | inactive | > 50 µM | –
CCCCCCCCCCCCCCCCCCOP(=O)(O)OC[C@H]1O[C@@H](n2ccc3c(-c4cccs4)ncnc32)[C@H](O)[C@@H]1O | 1.97 µM | – | > 20 µM | inactive | – | –
